System: angioedema in CSU patients
Experiment: Phase 2 CSU study: angioedema activity score over 7 days (AAS7)
Type: in vivo, human
Design: AAS7, Median / AAS7 Change from baseline, Median: scale not given here
Source text: The study comprises a 12 week, randomized, double-blind, placebo-controlled, multi-center, dose-ranging efficacy and safety phase, followed by a 40 week open label extension (OLE) phase (see FIG. 1). The study consists of three phases and an optional OLE phase. […] The weekly angioedema activity score (AAS7) was proposed as a tertiary endpoint. […] Patients were to complete the AAS using the e-diary. The e-diary was to be used once daily on the same time of each day recording of participant's answers to the angioedema activity score over 7 days (AAS7) questionnaire.

[1] = Omalizumab-Naïve Population, 400 mg TID, Week 7
[2] = Omalizumab-Naïve Population, 400 mg TID, Week 8
[3] = Omalizumab-Naïve Population, 400 mg TID, Week 9
[4] = Omalizumab-Naïve Population, 400 mg TID, Week 10
[5] = Omalizumab-Naïve Population, 400 mg TID, Week 11
[6] = Omalizumab-Naïve Population, 400 mg TID, Week 12
[7] = Patients with Prior Omalizumab Use, 400 mg BID, Week 1
[8] = Patients with Prior Omalizumab Use, 400 mg BID, Week 2
[9] = Patients with Prior Omalizumab Use, 400 mg BID, Week 3
[10] = Patients with Prior Omalizumab Use, 400 mg BID, Week 4
[11] = Patients with Prior Omalizumab Use, 400 mg BID, Week 5
[12] = Patients with Prior Omalizumab Use, 400 mg BID, Week 6
[13] = Patients with Prior Omalizumab Use, 400 mg BID, Week 7
[14] = Patients with Prior Omalizumab Use, 400 mg BID, Week 8
[15] = Patients with Prior Omalizumab Use, 400 mg QPM, Week 1
[16] = Patients with Prior Omalizumab Use, 400 mg QPM, Week 2
[17] = Patients with Prior Omalizumab Use, 400 mg QPM, Week 3
[18] = Patients with Prior Omalizumab Use, 400 mg QPM, Week 4
[19] = Patients with Prior Omalizumab Use, 400 mg QPM, Week 5
[20] = Patients with Prior Omalizumab Use, 400 mg QPM, Week 6
[21] = Patients with Prior Omalizumab Use, 400 mg QPM, Week 7
[22] = Patients with Prior Omalizumab Use, 400 mg QPM, Week 8

CC(C)(C=C(C#N)C(=O)N1CCC[C@@H](n2nc(-c3ccc(Oc4ccccc4)cc3F)c3c(N)ncnc32)C1)N1CCN(C2COC2)CC1 [rilzabrutinib, (R)-2-[3-[4-amino-3-(2-fluoro-4-phenoxy-phenyl)pyrazolo[3,4-d]pyrimidin-1-yl]piperidine-1-carbonyl]-4-methyl-4-[4-(oxetan-3-yl)piperazin-1-yl]pent-2-enenitrile]
AAS7 Change from baseline, Median [1]: −27.00 | AAS7 Percent change from baseline, Mean (SD) [1]: −66.41 (55.40) % | AAS7 Percent change from baseline, Median [1]: −93.41% | AAS7 Change from baseline, Mean (SD) [2]: −33.38 (24.94) | AAS7 Change from baseline, Median [2]: −25.00 | AAS7 Percent change from baseline, Mean (SD) [2]: −69.90 (38.13) % | AAS7 Percent change from baseline, Median [2]: −85.88% | AAS7, Median [3]: 1.40 | AAS7 Change from baseline, Mean (SD) [3]: −38.54 (26.30) | AAS7 Change from baseline, Median [3]: −39.00 | AAS7 Percent change from baseline, Mean (SD) [3]: −78.96 (34.18) % | AAS7 Percent change from baseline, Median [3]: −98.13% | AAS7, Median [4]: 2.00 | AAS7 Change from baseline, Mean (SD) [4]: −39.26 (24.84) | AAS7 Change from baseline, Median [4]: −40.00 | AAS7 Percent change from baseline, Mean (SD) [4]: −82.44 (32.63) % | AAS7 Percent change from baseline, Median [4]: −96.61% | AAS7, Median [5]: 3.00 | AAS7 Change from baseline, Mean (SD) [5]: −36.30 (27.49) | AAS7 Change from baseline, Median [5]: −31.00 | AAS7 Percent change from baseline, Mean (SD) [5]: −76.08 (33.07) % | AAS7 Percent change from baseline, Median [5]: −96.00% | AAS7, Median [6]: 0.00 | AAS7 Change from baseline, Mean (SD) [6]: −37.55 (25.86) | AAS7 Change from baseline, Median [6]: −31.00 | AAS7 Percent change from baseline, Mean (SD) [6]: −82.72 (30.20) % | AAS7 Percent change from baseline, Median [6]: −100.00% | AAS7, Mean (SD) [7]: 0.00 (0.00) | AAS7, Median [7]: 0.00 | AAS7 Change from baseline, Mean (SD) [7]: −39.50 (3.54) | AAS7 Change from baseline, Median [7]: −39.50 | AAS7 Percent change from baseline, Mean (SD) [7]: −100.00 (0.00) % | AAS7 Percent change from baseline, Median [7]: −100.00% | AAS7, Mean (SD) [8]: 0.00 (0.00) | AAS7, Median [8]: 0.00 | AAS7 Change from baseline, Mean (SD) [8]: −39.50 (3.54) | AAS7 Change from baseline, Median [8]: −39.50 | AAS7 Percent change from baseline, Mean (SD) [8]: −100.00 (0.00) % | AAS7 Percent change from baseline, Median [8]: −100.00% | AAS7, Mean (SD) [9]: 0.00 (0.00) | AAS7, Median [9]: 0.00 | AAS7 Change from baseline, Mean (SD) [9]: −39.50 (3.54) | AAS7 Change from baseline, Median [9]: −39.50 | AAS7 Percent change from baseline, Mean (SD) [9]: −100.00 (0.00) % | AAS7 Percent change from baseline, Median [9]: −100.00% | AAS7, Mean (SD) [10]: 0.00 (0.00) | AAS7, Median [10]: 0.00 | AAS7 Change from baseline, Mean (SD) [10]: −39.50 (3.54) | AAS7 Change from baseline, Median [10]: −39.50 | AAS7 Percent change from baseline, Mean (SD) [10]: −100.00 (0.00) % | AAS7 Percent change from baseline, Median [10]: −100.00% | AAS7, Mean (SD) [11]: 0.00 (0.00) | AAS7, Median [11]: 0.00 | AAS7 Change from baseline, Mean (SD) [11]: −39.50 (3.54) | AAS7 Change from baseline, Median [11]: −39.50 | AAS7 Percent change from baseline, Mean (SD) [11]: −100.00 (0.00) % | AAS7 Percent change from baseline, Median [11]: −100.00% | AAS7, Mean (SD) [12]: 0.00 (0.00) | AAS7, Median [12]: 0.00 | AAS7 Change from baseline, Mean (SD) [12]: −39.50 (3.54) | AAS7 Change from baseline, Median [12]: −39.50 | AAS7 Percent change from baseline, Mean (SD) [12]: −100.00 (0.00) % | AAS7 Percent change from baseline, Median [12]: −100.00% | AAS7, Mean (SD) [13]: 1.00 (1.41) | AAS7, Median [13]: 1.00 | AAS7 Change from baseline, Mean (SD) [13]: −38.50 (2.12) | AAS7 Change from baseline, Median [13]: −38.50 | AAS7 Percent change from baseline, Mean (SD) [13]: −97.62 (3.37) % | AAS7 Percent change from baseline, Median [13]: −97.62% | AAS7, Mean (SD) [14]: 0.00 (0.00) | AAS7, Median [14]: 0.00 | AAS7 Change from baseline, Mean (SD) [14]: −39.50 (3.54) | AAS7 Change from baseline, Median [14]: −39.50 | AAS7, Mean (SD) [15]: 27.00 (NC) | AAS7, Median [15]: 27.00 | AAS7 Change from baseline, Mean (SD) [15]: 41.00 (NC) | AAS7 Change from baseline, Median [15]: −41.00 | AAS7 Percent change from baseline, Mean (SD) [15]: −60.29 (NC) % | AAS7 Percent change from baseline, Median [15]: −60.29% | AAS7, Mean (SD) [16]: 25.00 (NC) | AAS7, Median [16]: 25.00 | AAS7 Change from baseline, Mean (SD) [16]: −43.00 (NC) | AAS7 Change from baseline, Median [16]: −43.00 | AAS7 Percent change from baseline, Mean (SD) [16]: −63.24 (NC) % | AAS7 Percent change from baseline, Median [16]: −63.24% | AAS7, Mean (SD) [17]: 29.00 (NC) | AAS7, Median [17]: 29.00 | AAS7 Change from baseline, Mean (SD) [17]: −39.00 (NC) | AAS7 Change from baseline, Median [17]: −39.00 | AAS7 Percent change from baseline, Mean (SD) [17]: −57.35 (NC) % | AAS7 Percent change from baseline, Median [17]: −57.35% | AAS7, Mean (SD) [18]: 26.00 (NC) | AAS7, Median [18]: 26.00 | AAS7 Change from baseline, Mean (SD) [18]: −42.00 (NC) | AAS7 Change from baseline, Median [18]: −42.00 | AAS7 Percent change from baseline, Mean (SD) [18]: −61.76 (NC) % | AAS7 Percent change from baseline, Median [18]: −61.76% | AAS7, Mean (SD) [19]: 37.00 (NC) | AAS7, Median [19]: 37.00 | AAS7 Change from baseline, Mean (SD) [19]: −31.00 (NC) | AAS7 Change from baseline, Median [19]: −31.00 | AAS7 Percent change from baseline, Mean (SD) [19]: −45.59 (NC) % | AAS7 Percent change from baseline, Median [19]: −45.59% | AAS7, Mean (SD) [20]: 21.00 (NC) | AAS7, Median [20]: 21.00 | AAS7 Change from baseline, Mean (SD) [20]: −47.00 (NC) | AAS7 Change from baseline, Median [20]: −47.00 | AAS7 Percent change from baseline, Mean (SD) [20]: −69.12 (NC) % | AAS7 Percent change from baseline, Median [20]: −69.12% | AAS7, Mean (SD) [21]: 12.00 (NC) | AAS7, Median [21]: 12.00 | AAS7 Change from baseline, Mean (SD) [21]: −56.00 (NC) | AAS7 Change from baseline, Median [21]: −56.00 | AAS7 Percent change from baseline, Mean (SD) [21]: −82.35 (NC) % | AAS7 Percent change from baseline, Median [21]: −82.35% | AAS7, Mean (SD) [22]: 18.00 (NC) | AAS7, Median [22]: 18.00 | AAS7 Change from baseline, Mean (SD) [22]: −50.00 (NC)
